Our source for the IC50 values is ChEMBL document CHEMBL3886580, “B-RAF kinase inhibitors” (2016).

Each structure is given as a SMILES string.

As usually defined, the IC50 is the concentration needed to halve the response being measured.

This assay deals with Serine/threonine-protein kinase B-raf (Homo sapiens, UniProt P15056, V600E). Put plainly: B-RAF (V600E) Kinase Assay: In a dilution series 10 uL/well of test substance solution are placed in a multiwell plate. The dilution series is selected so that generally a range of concentrations of 2 uM to 0.119 nM or 0.017 nM is covered. If necessary the initial concentration of 2 uM is changed to 50 uM, 10 uM or 0.4 uM or 0.2857 uM and further dilution is carried out accordingly. The final concentration of DMSO is 5%. 10 uL/well of the B-Raf (V600E)-kinase solution are pipetted in (containing 0.5 ng B-Raf (V600E)-kinase (e.g. from Upstate) in 20 mM Tris-HCl pH 7.5, 0.1 mM EDTA, 0.1 mM EGTA, 0.286 mM sodium orthovanadate, 10% glycerol, 1 mg/mL bovine serum albumin, 1 mM dithiothreitol) and the mixture is incubated for 1 h at RT under with shaking. The kinase reaction is started by the addition of 20 uL/well ATP solution [final concentration: 250 uM ATP, 30 mM Tris-HCl pH 7.5, 0.02% Brij, 0.2 mM sodium orthovanadate, 10 mM magnesium acetate, 0.1 mM EGTA, phosphatase cocktail (Sigma, #P2850, dilution recommended by the manufacturer)] and 10 uL/well MEK1 solution [containing 50 ng biotinylated MEK1 (prepared from purified MEK1 according to standard procedure, e.g. with EZ-Link Sulpho-NHS-LC-Biotin reagent, Pierce, #21335)] and carried out for 60 min at RT with constant shaking. The reaction is stopped by the addition of 12 uL/well of a 100 mM EDTA solution and incubation is continued for a further 5 min. 55 uL/well of the reaction solution are transferred into a streptavidin-coated plate (e.g. Streptawell HighBond, Roche, #11989685001) and shaken gently for 1 h at RT, in order to bind biotinylated MEK1 to the plate. After elimination of the liquid the plate is washed five times with 200 uL/well of 1ÿPBS and 100 uL/well solution of primary antibody plus europium-labelled secondary antibody [Anti Phospho-MEK (Ser217/221), Cell Signaling, #9121 and Eu-N1 labelled goat-anti-rabbit antibody, Perkin Elmer, #AD0105] is added, the primary antibody is diluted 1:2000 and the secondary antibody is diluted to 0.4-0.5 ug/mL in Delfia Assay Buffer (Perkin Elmer, #1244-111). After 1 h shaking at RT the solution is poured away and washed five times with 200 uL/well Delfia Wash Buffer (Perkin Elmer, #4010-0010/#1244-114). After the addition of 200 uL/well Enhancement Solution (Perkin Elmer, #4001-0010/#1244-105) the mixture is shaken for 10 min at RT and then measured in a Wallac Victor using the program "Delfia Time Resolved Fluorescence (Europium)". IC50 values are obtained from these dosage-activity curves using a software program (GraphPadPrizm).
Serine/threonine-protein kinase B-raf, sequence (P15056 2-766 V600E limits assumed): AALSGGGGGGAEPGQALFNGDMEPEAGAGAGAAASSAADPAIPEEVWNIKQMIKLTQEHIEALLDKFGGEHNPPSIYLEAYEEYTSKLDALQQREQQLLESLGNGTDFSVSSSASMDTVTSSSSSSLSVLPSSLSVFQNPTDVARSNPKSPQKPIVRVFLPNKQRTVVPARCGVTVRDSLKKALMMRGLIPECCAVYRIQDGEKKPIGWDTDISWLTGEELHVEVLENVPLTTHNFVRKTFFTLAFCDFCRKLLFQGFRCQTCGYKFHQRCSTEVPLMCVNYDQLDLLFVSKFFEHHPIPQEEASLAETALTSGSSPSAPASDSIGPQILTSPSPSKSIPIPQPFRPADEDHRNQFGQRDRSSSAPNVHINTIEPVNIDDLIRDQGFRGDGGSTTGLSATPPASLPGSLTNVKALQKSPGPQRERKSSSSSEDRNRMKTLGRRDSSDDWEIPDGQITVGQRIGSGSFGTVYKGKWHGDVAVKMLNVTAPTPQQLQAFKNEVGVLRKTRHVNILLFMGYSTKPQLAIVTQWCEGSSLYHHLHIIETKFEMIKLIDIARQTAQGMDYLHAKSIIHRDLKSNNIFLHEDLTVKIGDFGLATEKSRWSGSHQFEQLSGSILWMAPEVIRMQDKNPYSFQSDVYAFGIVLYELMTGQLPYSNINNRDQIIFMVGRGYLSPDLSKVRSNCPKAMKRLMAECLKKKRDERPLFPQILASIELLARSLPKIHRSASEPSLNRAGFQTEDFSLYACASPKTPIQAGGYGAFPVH
Consider `CCN1CCN(c2cncc(-c3cn(-c4cc(C(=O)Nc5cc(C(C)(C)C)on5)ccc4C)nn3)c2)CC1C` (stereo not given), for which the IC50 is 11 nM.

On to `C=CCN1CCN(c2cncc(-c3cn(-c4cc(NC(=O)c5ccc(C(C)(C)C)s5)ccc4C)nn3)c2)CC1`, for which the IC50 came to 13 nM.

Consider `Cc1ccc(NC(=O)c2ccc(C(C)(C)C)s2)cc1-n1cc(-c2cncc(N3CCNCC3)c2)nn1`, for which the IC50 stood at 4 nM.

For the compound `Cc1ccc(NC(=O)c2ccc(C(C)(C)C)s2)cc1-n1cc(-c2cncc(N3CCN(C)CC3)c2)nn1`, the IC50 stood at 6 nM.

As to `Cc1ccc(NC(=O)c2ccc(C(C)(C)C)s2)cc1-n1cc(-c2cncc(N3CCN(CC(C)C)CC3)c2)nn1`, the IC50 turned out to be 18 nM.
